Source: US6645504B1, “Bystander suppression of type I diabetes by oral administration of glucagon” (AutoImmune Inc., priority 1987, dated 2003)
Values joined by “and” are separate entries in the source; they are usually repeats but may differ in a detail not shown here. Equal entries are not always repeated.

How the values were obtained:
TGF-β = assay: Measurement of TGF-β activity in serum-free culture supernatants of spleen cells; type: cell-based, Lewis rats; conditions: spleen cells of fed animals stimulated in vitro with the fed antigen
Experimental: Measurement Of TGF-β Activity In Serum-Free Culture Supernatants. Serum free culture supernatants were collected as previously described (Kehri, et al. J. Exp. Med. 163: 1037-1050, 1986; Wahl, et al. J. […] Thereafter cells were washed three times and resuspended in serum-free medium for the remainder of the 72 hour culture, collected, then frozen until assayed. Determination of TGF-β content and isoform type in supernatants was performed using a mink lung epithelial cell line (American Type Culture Collection, Bethesda, Md. #CCL-64) according to Danielpour et al. (supra), and confirmed by a Sandwich Enzyme Linked Immunosorbent Assay (SELISA) assay as previously described (Danielpour et al. Growth Factors 2: 61-71,1989). The percent active TGF-β was determined by assay without prior acid activation of the samples.

MBP line = assay: Transwell culture suppression of MBP T cell line; type: cell-based, Lewis rats; conditions: MBP line + MBP
Text: (§1) Transwell Cultures. A dual chamber transwell culture system (Costar, Cambridge, Mass.), which is 24.5 mm in diameter and consists of two compartments separated by a semi-permeable polycarbonate membrane, with a pore size of 0.4 μm, was used. The two chambers are 1 mm apart, allowing cells to be coin-cubated in close proximity without direct cell-to-cell contact. To measure in vitro suppression of proliferative responses in transwell cultures, 5×10^4 MBP- or OVA-specific line cells, raised and maintained as previously described (Ben-Nun, A. et al., Eur. J. Immunol. 11:195, 1981), were cultured with 10^6 irradiated (2,500 rad) thymocytes, in 600 μl of proliferation media in the lower well. Spleen cells from orally tolerized rats or controls (fed BSA) were added to the upper well (5×10^5 cells in 200 μl). Spleen cells were removed 7-14 days after the last feeding, and a single cell suspension was prepared by pressing the spleens through a stainless steel mesh. MBP and OVA (50 μg/ml) were added in a volume of 20 μl. […] In some experiments, modulator cells were added in the lower well together with responder cells, and in these instances modulator cells were irradiated (1,250 rad) immediately before being placed in culture. Proliferation media consisted of RPMI 1640 (Gibco Laboratories, Grand Island, N.Y.) supplemented with […] 2-mercaptoethanol, 1% sodium pyruvate, 1% penicillin and streptomycin, 1% glutamine, 1% HEPES buffer, 1% nonessential amino acids, and 1% autologous serum. Each transwell was performed in quadruplicate. The transwells were incubated at 37° C. in a humidified 6% CO2 and 94% air atmosphere for 72 hours. After 54 hours of culture, each lower well was pulsed with 4 μCi of [^3H]thymidine and at 72 hours split and reseeded to three wells in a round-bottomed 96-well plate (Costar) for harvesting onto fiberglass filters and counting using standard liquid scintillation techniques. Percent suppression =100×(1−Δ A cpm responders cultured with modulators/Δ cpm of responders).

EAE [1] = assay: In vivo bystander suppression of EAE (MBP/CFA plus secondary antigen); design: species or system Lewis rats
Experimental: Immunization Of Animals. Animals were immunized with 25 μg of MBP in the footpad, emulsified in an equal volume of CFA containing 4 mg/ml of Mycobacterium tuberculosis (Difco Labs, Detroit, Mich.) in order to induce a substantial EAE disease state. For in vivo bystander suppression experiments, 50-300 μg of the secondary antigens OVA, BSA or KLH were injected subcutaneously in the same footpad in 100 μl PBS 8 hours after primary immunization with MBP CFA.
Clinical Evaluation. Animals were evaluated in a blinded fashion every day for evidence of EAE in order to correlate the clinical manifestations of Bystander Suppression with the in vitro assays described below. Clinical severity of EAE was scored as follows: 0, no disease; 1, limp tail; 2, hind limb paralysis; 3, hind limb paraplegia, incontinence; 4, tetraplegia; 5, death. Mean maximal clinical severity was calculated as previously described for each experimental group (7). Statistical analysis was performed using a one-tailed student's t test and a chi square analysis for comparing incidence between groups.
Induction Of Oral Tolerance. Animals were fed 1 mg MBP, OVA, BSA or KLH dissolved in 1 ml PBS or PBS alone, by gastric intubation using an 18-gauge stainless steel animal feeding needle (Thomas Scientific, Swedesboro, N.J.). Animals were fed five times (total dose of 5 mg), at intervals of 2-3 days with the last feeding 2 days before immunization.

[2] = system: DTH responses to MBP or OVA; assay: Delayed type hypersensitivity (DTH) testing, Example 2; type: in vivo, Lewis rats
Experimental: Delayed Type Hypersensitivity (DTH) Testing. DTH was tested by injecting 50 μg of MBP or OVA in PBS, subcutaneously into the ear. MBP was injected in the left ear and OVA in the right ear in the same animal. Thickness, in units of 0.01 inch, was measured in a blinded fashion, before and 48 hours after challenge, using micrometer calipers (Mitutoyo, Utsunomia, Japan). Change in ear thickness before and after challenge was recorded for each animal, and results were expressed as the mean for each experimental group ± SEM; each group consisted of five animals.

EAE [3] = assay: Adoptive transfer of disease suppression; type: in vivo, Lewis rats; conditions: naive recipients immunized with MBP/CFA and given OVA subcutaneously; FIG. 9
Experimental: Adoptive Transfer Of Disease Suppression. In order to monitor the adoptive transfer of disease suppression occurring during Bystander Suppression donor rats were fed either 1 mg MBP, OVA, or KLH, five times at 2 day intervals and killed 7-14 days after the final feeding. Spleen cells were harvested, and incubated in vitro with the homologous antigen (50 μg/ml) in proliferation medium, for 72 hours. Cells were injected intraperitoneally: 10^8 cells for whole spleen populations or 5-6×10^7 cells for CD8− or CD4-depleted populations. Recipient animals were irradiated (250 rad) before adoptive transfer, immunized with MBP/CFA 6 hours after adoptive transfer, and challenged 8 hours later with 50 μg OVA.

[4] = system: rheumatoid arthritis symptoms; assay: Oral collagen in humans with rheumatoid arthritis; type: in vivo; conditions: 0.1-1.0 mg single dose daily
Text: The above animal models can be used to establish the utility of the present invention in mammals (including humans). […] All of these human trials were attempted based on animal data using the appropriate disease model.

MBP specific T-cells = assay: Treatment of supernatants with anti-cytokine antibodies; type: cell-based, Lewis rats; conditions: added to spleen cells of MBP-fed animals stimulated with MBP; FIG. 2
Experimental: In Vitro Suppression Of Proliferative Responses By Supernatants. Spleen cells were removed 7-14 days after the last feeding and a single cell suspension prepared by pressing the spleens through a stainless steel mesh. For preparation of supernatants, spleen cells at a concentration of 5×10^6 cells/ml were stimulated in vitro with MBP (50 μg/ml) in 10 ml of proliferation medium. Proliferation medium consisted of RPMI 1640 (GIBCO, Grand Island, N.Y.) supplemented with 2×10^−5 M 2-mercaptoethanol, 1% sodium pyruvate, 1% penicillin and streptomycin, 1% glutamine, 1% HEPES buffer, 1% nonessential amino acids and 1% autologous serum. Supernatants were harvested at 24 hours and 100 μl added to 2.5×10^4 MBP specific T-cells, raised and maintained as previously described (Ben-Nun, A. et al., Eur. J. Immunol. 11:195-199, 1981), cultured with 5×10^5 irradiated (2500 rad) thymocytes, in 100 μl of proliferation media. MBP ([…]) was added to the culture in a volume of 20 μl. Experiments were performed in triplicate in round bottomed 96-well plates (Costar, Cambridge, Mass.). Cells were cultured for 72 hours at 37° C. in an incubator with humidified 6% CO2 and 94% air atmosphere, and each well was pulsed with 1 μCi of ^3H thymidine for the last 18 hours of culture. Cultures were harvested onto fiberglass filters using a multiharvester and counted using standard liquid scintillation techniques. […]

[5] = system: MBP-primed lymphoid cells; assay: Proliferation of MBP-primed lymphoid cells in response to overlapping guinea pig MBP peptides; type: cell-based, rats; conditions: lymph node cells triggered with MBP-peptides; FIG. 10
Text: The disease-inducing fragments (autoimmune response epitopes) of MBP were first confirmed as follows: Overlapping peptides as detailed in FIG. 10, of guinea pig MBP were obtained from commercial sources or synthesized in accordance with well-known techniques, specifically using a commercial peptide synthesis apparatus (from Applied Biosystems) and following the manufacturer's instructions. Whole MBP was then fed to rats and lymph node cells from the orally tolerized animals were triggered with the MBP-peptides. The ability of the triggered cells to induce killer T-cells was then quantitatively determined by a proliferation assay also, as described in Examples 1 and 2, and by testing the ability of the proliferating cells to transfer the disease.

OVA (responder) line = assay: Transwell triggering of suppression by MBP peptides; type: cell-based, rats; conditions: peptide added to modulator well with spleen cells of MBP-fed animals; FIG. 11
Text: as §1
The Transwell System of Example 2 above was used to identify the epitopes present on guinea pig MBP which induce the release of TGF-β from suppressor T-cells.
Peptides corresponding to guinea pig MBP residue nos.

EAE [6] = assay: EAE induced by guinea pig MBP 71-90, feeding of MBP peptides; type: in vivo, Lewis rats; conditions: fed; FIG. 14
Experimental: The effects of feeding various peptides to Lewis rats induced for EAE by guinea pig MBP residue nos. 71-90 (the major immunodominant epitope of guinea pig MBP as shown in Example 3 above) were also studied.
EAE was induced by immunizing with 0.25 mg of guinea pig MBP amino acid residue nos 71-90 in Complete Freund's Adjuvant and the effect of feeding various guinea pig MBP peptides on EAE was examined.

DTH responses = DTH responses in animals fed MBP or MBP peptides; type: in vivo, Lewis rats; conditions: FIG. 15
Text: Guinea pig MBP peptide 131-150 was ineffective in this case. Peptides were also fed with STI which prevents their breakdown by gastric juices and enhances their biological effect. DTH responses to whole MBP were suppressed by feeding MBP or any one of the MBP-peptides 21-40, or 71-90.

EAE [7] = assay: I.V. tolerization with MBP and MBP peptides in EAE induced with whole guinea pig MBP; type: in vivo, SJL/J mice; conditions: days 8 and 9 post immunization, FIG. 16
Text: FIG. 16 is a bar graph showing the effect of intravenous tolerization with MBP and disease inducing and non-inducing fragments thereof on induced EAE expression in SJL/J mice.
Finally, the suppression of EAE by I.V. tolerization with MBP and MBP peptides prior to disease expression (on days 8 and 9 post immunization) was examined.

[8] = OVA-fed modulators + OVA in upper well
[9] = OVA-fed modulators in upper well without OVA

OVA: Ovalbumin purchased from Sigma
TGF-β in the active form (TGF-β): 65±9% | amount of TGF-β (TGF-β; serum-free): 6.1 ± 1.0 ng/mL | Percent Suppression (MBP line; [8]): 47% | Δ cpm (MBP line; [8]): 37,778 ± 3,780 cpm | Percent Suppression (MBP line; [9]): 6% | Δ cpm (MBP line; [9]): 67,075 ± 2,904 cpm | disease severity (EAE [1]; OVA fed (1 mg, five times) plus OVA given subcutaneously after MBP/CFA, FIG. 6B): 0.9±0.2 | disease severity (EAE [1]; OVA fed and KLH given subcutaneously (control group), FIG. 6B): 3.9±0.1 | disease severity (EAE [1]; animals fed OVA in whom KLH was given after MBP/CFA plus OVA subcutaneously, FIG. 6C, two values 'respectively'): 3.7±0.1 and 3.8±0.2 | dose of secondary antigen given subcutaneously at which suppression of EAE occurred (EAE [1]; fed antigen, same antigen subcutaneously after MBP/CFA): 50 µg | mean maximal clinical disease severity (EAE [1]; not fed, OVA given subcutaneously in footpad 8 hours after MBP/CFA, FIG. 6A): 3.8±0.1 | DTH response to OVA ([2]; OVA fed, OVA subcutaneously in association with MBP/CFA): did not generate an immune response to OVA | DTH responses to MBP ([2]; fed antigen, then immunized with MBP/CFA plus OVA, FIG. 7): Suppressed DTH responses to MBP | adoptive transfer of protection by spleen cells from fed animals (EAE [3]): adoptively transferred protection

collagen
rheumatoid arthritis symptoms (joint tenderness, AM stiffness, grip strength) [4]: successfully suppressed

COc1ccc2c(c1)c(CC(=O)O)c(C)n2C(=O)c1ccc(Cl)cc1 [indomethacin]
effect on suppression mediated by the supernatants (MBP specific T-cells): No effect on suppression

guinea pig MBP 71-90: peptide spanning residue 71-90 of guinea pig MBP, the immunodominant epitope (SLPQKSQRSQDENPVVHFFK; UniProt P25188 71-90, looked up, fragment)
induction of killer T-cells (proliferation) [5]: by far the most efficient inducer of killer T-cells | triggering suppression of proliferation in the transwell system (OVA (responder) line): ineffective in triggering suppression | down-regulation of EAE induced by guinea pig MBP 71-90 (EAE [6]): equally effective in down-regulating EAE | DTH responses to guinea pig MBP peptide 71-90 (DTH responses): suppressed | DTH responses to whole MBP (DTH responses): suppressed | suppression of EAE induced with whole guinea pig MBP (EAE [7]): effective in suppressing EAE
